Article PMC8510269, “A Simple Method of Synthesis of 3-Carboxy-2,2,5,5-Tetraethylpyrrolidine-1-oxyl and Preparation of Reduction-Resistant Spin Labels and Probes of Pyrrolidine Series” (Molecules, 2021)
Like-named read-outs stand apart in the source and are kept apart here.

How the values were obtained:
[1] = Reduction of nitroxides with ascorbate in the presence of glutathione (EPR kinetics); type: physicochemical; conditions: nitroxide 0.3–0.4 mM, ascorbate 100–300 mM, 50 mM phosphate buffer, pH 7.4, 25 °C, glutathione 2 mM
Procedure: The EPR spectra in water were recorded on a Bruker ER-200D-SRC spectrometer in 50 µL glass capillary for 0.2–0.4 mM radical solutions degassed via bubbling with argon. Spectrometer settings: frequency, 9.87 GHz; microwave power, 5.0 mW; modulation amplitude, 0.05 mT; time constant, 50–100 ms; and conversion time, 5.12 ms. […] All the solutions were deoxygenated with argon, carefully and quickly mixed in a small tube to attain final concentrations (nitroxide, 0.2–04 mM; GSH, 2 mM; and ascorbate, 100–300 mM) and were placed into an EPR capillary (50 μL). The capillary was sealed on both sides and placed into the EPR resonator. The decay of amplitude of the low-field component of the EPR spectrum was followed to obtain the kinetics. The initial part of the decay curves (up to 200 min) was used for fitting. Kinetics of the decay was fitted to a monoexponential function to calculate the first-order rate constants. Then, these constants were divided by the concentration of ascorbic acid to calculate the second-order reaction constants (Figure S3). Partition coefficients in a water–octanol mixture were estimated from the amplitudes of the EPR spectra of a nitroxide in water after extensive shaking with different portions of added octanol and separation using centrifugation.

[2] = Decay of nitroxides in murine blood (EPR); type: in vitro ADME, mice; conditions: nitroxide 0.2 mM
Procedure: (§1) The measurements of kinetics of nitroxide decay in blood and tissue homogenates were performed using an Elexsys E540 X-band spectrometer in a 50 µL glass capillary for 0.2 mM solutions, with the following spectrometer settings: frequency, 9.87 GHz; centerfield, 350.6 mT; sweep range, 10 mT; microwave power, 2.0 mW; modulation amplitude, 0.1 mT; time constant, 10.24 ms; and conversion time, 20.48 ms.
(§2) The stock solutions of the nitroxides 25 and 31 in water ([…]) were prepared, and pH was adjusted to 7.0 with NaOH. A total of 2 μL of the nitroxide solution was added to 98 μL of the blood or tissue homogenate, giving a nitroxide concentration equal to 0.2 mM. The resulting mixture of nitroxide with blood or tissue homogenate was transferred to the glass capillary (50 μL) and the latter was placed into the EPR resonator. The decay of the double integral of the EPR spectrum was followed to obtain the kinetics.
Male five-month-old C57BL/6 mice were obtained from the Breeding Experimental Animal Laboratory of the Institute of Cytology and Genetics (ICG), Siberian Division of the Russian Academy of Sciences (Novosibirsk, Russia). All the experiments were carried out according to Animal Care Regulations of the Institute of Cytology and Genetics (ICG), Novosibirsk. Animals were sacrificed by decapitation, blood was collected into a microcentrifuge tube with heparin (final concentration 5%), gently rocked by hand and snap-frozen with liquid nitrogen immediately after collection. Organ tissue (brain, heart, liver and kidney) was excised on ice, rinsed with ice-cold 10 mM PBS (pH 7.4), sheared with scissors and homogenized in PBS (1/1 by weight) on ice using electric homogenizer fitted with a Teflon head. The homogenates were then additionally mixed with PBS (1/1 by weight, final dilution 1/3) to decrease viscosity for further aspiration into glass capillaries, and snap-frozen in liquid nitrogen. […]

[3] = Partition coefficient octanol/water estimated from EPR amplitudes; type: physicochemical; conditions: ratio of concentrations in octanol to water; distilled water
Procedure: The EPR spectra in water were recorded on a Bruker ER-200D-SRC spectrometer in 50 µL glass capillary for 0.2–0.4 mM radical solutions degassed via bubbling with argon. Spectrometer settings: frequency, 9.87 GHz; microwave power, 5.0 mW; modulation amplitude, 0.05 mT; time constant, 50–100 ms; and conversion time, 5.12 ms. For kinetic measurements in water, stock solutions of nitroxide, ascorbic acid and glutathione in phosphate buffer (5 mM, pH 7.4) were prepared, and pH was adjusted to 7.4 with NaOH or HCl. All the solutions were deoxygenated with argon, carefully and quickly mixed in a small tube to attain final concentrations (nitroxide, 0.2–04 mM; GSH, 2 mM; and ascorbate, 100–300 mM) and were placed into an EPR capillary (50 μL). The capillary was sealed on both sides and placed into the EPR resonator. The decay of amplitude of the low-field component of the EPR spectrum was followed to obtain the kinetics. The initial part of the decay curves (up to 200 min) was used for fitting. Kinetics of the decay was fitted to a monoexponential function to calculate the first-order rate constants. Then, these constants were divided by the concentration of ascorbic acid to calculate the second-order reaction constants (Figure S3). Partition coefficients in a water–octanol mixture were estimated from the amplitudes of the EPR spectra of a nitroxide in water after extensive shaking with different portions of added octanol and separation using centrifugation.

[4] = Decay of nitroxides in tissue homogenates (brain, kidney, liver, heart; EPR); type: in vitro ADME, mice; conditions: nitroxide 0.2 mM
Procedure: as §1, §2
Male five-month-old C57BL/6 mice were obtained from the Breeding Experimental Animal Laboratory of the Institute of Cytology and Genetics (ICG), Siberian Division of the Russian Academy of Sciences (Novosibirsk, Russia). All the experiments were carried out according to Animal Care Regulations of the Institute of Cytology and Genetics (ICG), Novosibirsk. […]

[5] = literature value, cited from earlier work
[6] = parameters: method as in PMID 25348344; conditions: cited from earlier work

## CCC1(CC)CC(C(=O)OC)C(CC)(CC)N1O.Cl (stereo not shown)
other
  melting point: 148 to 150 °C

## 3-(2-Triphenylphosphonio)acetamidomethyl-2,2,5,5-tetraethylpyrrolidine-1-oxyl chloride [Nitroxide 28]
[1]
  kred × 10^4 (second-order rate constant for the initial rate of reduction with ascorbate): 2.4 ± 0.4 M^−1 s^−1
[2]
  Time to plateau of decay in blood: 10 min
[2]; plateaus in 10 min
  Decrease of concentration in blood: ca. 10%
[3]
  Kp (partition coefficient octanol/water): 13
[4]; mouse brain homogenate
  Decay in homogenate of brain: Faster decay of 28 as compared to 22
[4]; mouse liver homogenate
  Decay in homogenate of liver: Faster decay of 28 as compared to 22

## CCC1(CC)CC(C(=O)O)C(CC)(CC)N1[O] (stereo not shown) [Nitroxide 1, 3-Carboxy-2,2,5,5-tetraethylpyrrolidine-1-oxyl]
[1]
  kred × 10^4 (second-order rate constant for the initial rate of reduction with ascorbate): 3.3 ± 0.5 M^−1 s^−1
[5]; ref 9
  kred × 10^4 (second-order rate constant of reduction with ascorbate): 20 ± 10 M^−1 s^−1
[5]; ref 14
  kred × 10^4 (second-order rate constant of reduction with ascorbate): ≤ 10 M^−1 s^−1
[5]; ref 45
  kred × 10^4 (second-order rate constant of reduction with ascorbate): 12.5 ± 0.3 M^−1 s^−1
[3]
  Kp (partition coefficient octanol/water): 270
[6]
  Decay in cytosolic extract compared with trityl radical: slower decay in cytosolic extract than trityl radical

## CCC1=[N+]([O-])C(CC)(CC)C(C(=O)O)C1 (stereo not shown) [Nitroxide 8, 3-Carboxy-2,2,5-triethyl-3,4-dihydro-2H-pyrrole 1-oxide]
other
  melting point: 145 to 146 °C

## CCC1(CC)CC(C(=O)O)C(CC)(CC)N1 (stereo not shown) [Nitroxide 15, 3-Carboxy-2,2,5,5-tetraethylpyrrolidine]
other
  melting point: 113 to 114 °C

## CCC1(CC)CC(CN)C(CC)(CC)N1[O] (stereo not shown) [Nitroxide 22, 3-Aminomethyl-2,2,5,5-tetraethylpyrrolidine-1-oxyl]
[1]
  kred × 10^4 (second-order rate constant for the initial rate of reduction with ascorbate): 4.1 ± 0.2 M^−1 s^−1
[2]; 30 min
  Decay in blood (in words): No decay
[3]
  Kp (partition coefficient octanol/water): 5.5

## CCC1(CC)CC(CNC(=O)CN2CCCC2)C(CC)(CC)N1[O] (stereo not shown) [Nitroxide 29, 3-(2-(Pyrrolidin-1-yl)acetamidomethyl)-2,2,5,5-tetraethylpyrrolidine-1-oxyl]
[1]
  kred × 10^4 (second-order rate constant for the initial rate of reduction with ascorbate): 2.5 ± 0.4 M^−1 s^−1
[3]
  Kp (partition coefficient octanol/water): 70

## CCC1(CC)CC(CN2CCCCC2)C(CC)(CC)N1[O] (stereo not shown) [Nitroxide 30, 3-((Piperidin-1-yl)methyl)-2,2,5,5-tetraethylpyrrolidine-1-oxyl]
[1]
  kred × 10^4 (second-order rate constant for the initial rate of reduction with ascorbate): 2.2 ± 0.5 M^−1 s^−1
[3]
  Kp (partition coefficient octanol/water): 30
